From US12180155B2, “Crystalline forms of a cannabinoid receptor type 1 (CB1) modulator and methods of use and preparation thereof” (Anebulo Pharmaceuticals, Inc., priority 2021, dated 2024) come the findings set out here.

A value given as a limit tells only on which side of the number the result lay.

Assay type in all cases: physicochemical
Data set [1] can be described thus: Dynamic vapor sorption (DVS). As to conditions: for weight gain from dryness to 90% RH: second adsorption cycle. From the text:
DVS: Polymorphs according to the present disclosure may also give rise to vapors sorption behavior different from that of the amorphous material or another polymorphic form. The vapor sorption behavior may be measured in the laboratory by dynamic vapor sorption (DVS) which may be used to distinguish some polymorphic forms from others. In one aspect, the polymorphs as described herein may be characterized by dynamic vapor sorption.
The DVS trace of Crystalline Form I of (R)—N-(tert-butyl)-3-((4-chlorophenyl)(2-(trifluoromethyl)phenyl)methoxy)azetidine-1-carboxamide (compound 1) is reported in FIG. 4.
The DVS trace of Crystalline Form I of (R)—N-(tert-butyl)-3-((4-chlorophenyl)(2-(trifluoromethyl)phenyl)methoxy)azetidine-1-carboxamide (compound 1) is reported in FIG. 8.

The nature of data set [2]: Stability at solid state (XRPD re-analysis after storage).
Data set [3] in a line: Competitive slurries of Crystalline Form I and Crystalline Form II. Conditions: for conversion of equimolar Form I / Form II slurry to this form: XRPD of solids. The protocol:
The relationship between Crystalline Form I and Crystalline Form II of Compound 1 was investigated via competitive slurries and solubility determination.
Equimolar amounts of the Crystalline Form I and Crystalline Form II were suspended in saturated solution of compound 1 and aged in different conditions. Slurry samples were taken at intervals, solids were filtered, dried and analyzed by XRPD. Two temperatures, 20° C. and 40° C., and two different solvent systems, heptane and a mixture of ethanol and water, were investigated.

A short description of data set [4]: Temperature dependent solubility in heptane (Crystal16, clear points). As to conditions: for temperature at which the two solubility lines intersect / relative solubility: heptane; for temperature at which the two solubility lines intersect: Form I vs Form II. On the procedure: Temperature dependent solubility experiment was performed on Crystalline Form I and Crystalline Form II of Compound 1, and data was generated by Crystal16 equipment using heptane as solvent. Slurries with accurate amounts of solid in heptane were prepared, equilibrated at 20° C. for 5 minutes then heated to 70° C. at a rate of 5° C./min, and the turbidity of the suspensions were measured. Clear points of the solutions were determined and solubility vs. temperature curves (Arrhenius plots: ln[conc.] vs. 1/T [° K]) were obtained, as shown in FIG. 9.

The nature of data set [5]: Thermogravimetric analysis (TGA). As to conditions: up to 150° C. The source says:
TGA: Polymorphs according to the present disclosure may also give rise to thermal behavior different from that of the amorphous material or another polymorphic form. Thermal behavior may be measured in the laboratory by thermogravimetric analysis (TGA) which may be used to distinguish some polymorphic forms from others. In one aspect, the polymorphs as described herein may be characterized by thermogravimetric analysis.
The TGA trace of Crystalline Form I of (R)—N-(tert-butyl)-3-((4-chlorophenyl)(2-(trifluoromethyl)phenyl)methoxy)azetidine-1-carboxamide (compound 1) is reported in FIG. 3.
The TGA trace of Crystalline Form II of (R)—N-(tert-butyl)-3-((4-chlorophenyl)(2-(trifluoromethyl)phenyl)methoxy)azetidine-1-carboxamide (compound 1) is reported in FIG. 7.

In the case of `CC(C)(C)NC(=O)N1CC(O[C@H](c2ccc(Cl)cc2)c2ccccc2C(F)(F)F)C1` [Crystalline Form II, (R)—N-(tert-butyl)-3-((4-chlorophenyl)(2-(trifluoromethyl)phenyl)methoxy)azetidine-1-carboxamide], the hygroscopic behavior entry in data set [1] (dryness to 90% RH) was “non-hygroscopic behavior”. Besides, the “weight gain from dryness to 90% RH” value in data set [1] was less than 0.1%. Moreover, in data set [2] (8 weeks of storage at laboratory conditions), the “XRPD pattern after storage with respect to initial XRPD pattern” value is “did not show significant differences”. The “conversion of equimolar Form I / Form II slurry to this form” value in data set [3] (20° C., heptane and ethanol/water) is listed as “complete conversion”. Besides, in data set [3] (room temperature (20-21° C.)), the relative polymorph stability entry is reported as “most stable polymorph form”. In data set [4], the “temperature at which the two solubility lines intersect” value was “about 39 °C”. Further, the relative solubility result in data set [4] (temperature less than 39° C.) is listed as “less than that of Crystalline Form I”. In addition, in data set [4] (temperatures less than 39° C.), the relative stability result is on record as “more stable”. The weight loss in data set [5] was less than 0.1%.

`CC(C)(C)NC(=O)N1CC(O[C@H](c2ccc(Cl)cc2)c2ccccc2C(F)(F)F)C1` [Crystalline Form I, (R)—N-(tert-butyl)-3-((4-chlorophenyl)(2-(trifluoromethyl)phenyl)methoxy)azetidine-1-carboxamide]: the “weight gain from dryness to 90% RH” value in data set [1] came to 0.4%. Moreover, in data set [2] (5 weeks of storage at laboratory conditions), the “XRPD pattern after storage with respect to initial XRPD pattern” value is given as “did not show significant differences”. In data set [3] (40° C.), the “conversion of equimolar Form I / Form II slurry to this form” value is “slow but complete conversion”. Moreover, the “temperature at which the two solubility lines intersect” value in data set [4] was “about 39 °C”. The relative solubility result in data set [4] (temperature greater than 40° C.) was “less than that of Crystalline Form II”. Also, the relative stability result in data set [4] (temperatures greater than 40° C.) is listed as “more stable”. Moreover, the weight loss in data set [5] is less than 0.1%.
